Reference: BigSolDB 2.1

O=P(NCc1cccc(CNP(=O)(Oc2ccccc2)Oc2ccccc2)c1)(Oc1ccccc1)Oc1ccccc1
solubility (mole fraction)
Details	in 1-methoxy-2-propanol	in 1-methoxy-2-propyl acetate	in 1-propoxy-2-propanol	in 2-(2-methoxypropoxy) propanol
293.15 K	0.000609	0.00319	0.000508	0.00267
298.15 K	0.000758	0.00373	0.000636	0.00331
303.15 K	0.000936	0.0043	0.000766	0.00401
308.15 K	0.00114	0.0049	0.000964	0.00487
313.15 K	0.00138	0.00547	0.00121	0.00584
318.15 K	0.00169	0.00635	0.00144	0.00714
323.15 K	0.00204	0.00708	0.00182	0.00829
328.15 K	0.00255	0.0079	0.00216	0.00995
333.15 K	0.00305	0.00891	0.00259	0.0116
338.15 K	0.00374	0.01	0.00316	0.0138
343.15 K	0.00432	0.0115	0.00374	0.0156

O=P(Oc1ccccc1)(Oc1ccccc1)N1CCN(P(=O)(Oc2ccccc2)Oc2ccccc2)CC1
solubility (mole fraction)
Details	in 1-methoxy-2-propanol	in 1-methoxy-2-propyl acetate	in 1-propoxy-2-propanol	in 2-(2-methoxypropoxy) propanol
293.15 K	0.000356	0.000351	0.000353	0.000974
298.15 K	0.000447	0.000443	0.000445	0.00117
303.15 K	0.000589	0.000517	0.000564	0.00139
308.15 K	0.000782	0.00063	0.000715	0.00167
313.15 K	0.00102	0.000762	0.000893	0.00199
318.15 K	0.00132	0.000945	0.00112	0.00236
323.15 K	0.00168	0.00115	0.00141	0.0029
328.15 K	0.00215	0.00141	0.00177	0.00344
333.15 K	0.00282	0.0017	0.00219	0.00408
338.15 K	0.00367	0.00204	0.00275	0.00474
343.15 K	0.00457	0.00248	0.00339	0.00562
